Measurements taken from PubChem BioAssay (NCI).
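Growth conditions: 96-well plates. Treatment: test compound, 48 hours, 5 concentrations. Analysis: linear interpolation between bracketing concentrations; unreached endpoints set to highest concentration. The concentration for 50% growth inhibition is given as GI50. TGI is the concentration that stops growth completely.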

Columns and labels:
Assay in all cases: NCI anticancer screen, dose series, 48 h
A498 renal = test system: A498 renal
CCRF-CEM leukemia = test system: CCRF-CEM leukemia
HCT-15 colon = test system: HCT-15 colon
HOP-62 NSCLC = test system: HOP-62 NSCLC
KM12 colon = test system: KM12 colon
MALME-3M melanoma = test system: MALME-3M melanoma
SNB-19 CNS = test system: SNB-19 CNS
SW-620 colon = test system: SW-620 colon
T-47D breast = test system: T-47D breast
U251 CNS = test system: U251 CNS

Row | SMILES | GI50 (A498 renal) [nM] | TGI (A498 renal) [nM] | GI50 (CCRF-CEM leukemia) [nM] | TGI (CCRF-CEM leukemia) [nM] | GI50 (HCT-15 colon) [nM] | TGI (HCT-15 colon) [nM] | GI50 (HOP-62 NSCLC) [nM] | TGI (HOP-62 NSCLC) [nM] | GI50 (KM12 colon) [nM] | TGI (KM12 colon) [nM] | GI50 (MALME-3M melanoma) [nM] | TGI (MALME-3M melanoma) [nM] | GI50 (SNB-19 CNS) [nM] | TGI (SNB-19 CNS) [nM] | GI50 (SW-620 colon) [nM] | TGI (SW-620 colon) [nM] | GI50 (T-47D breast) [nM] | TGI (T-47D breast) [nM] | GI50 (U251 CNS) [nM] | TGI (U251 CNS) [nM]
1 | O=C(c1ccco1)c1c(C(F)(F)F)n([O-])c2cc(Cl)c(Cl)cc2[n+]1=O | 1530 | 3620 | 384 | 9500 | 233 | 654 | 316 | 1000 | 186 | 750 | 824 | 1810 | 6410 | 14800 | 873 | 2480 | 7030 | 15300 | 705 | 1430
2 | NC1=Nc2cc(OCCCCN3Cc4ccccc4C3)c(OCC3CC3)cc2C12CCCC2 | 951 | 4910 | 2480 | 9500 | 1480 | 3590 | 1630 | 3390 | 1720 | 3390 | 1630 | 3120 | 3280 | 12400 | 1700 | 3480 | 1780 | 4290 | 1530 | 3110
3 | CS(=O)c1cc(=O)c2ccccc2s1 (stereo not given) | – | 25400 | – | 4450 | – | 6750 | – | 44200 | – | 28400 | – | 4530 | – | 32300 | – | 4200 | – | 6520 | – | 22100
4 | O=c1[nH]c2c(ccc3cnccc32)c2c1CCC2 | 155 | 553 | 248 | 708 | 357 | > 100000 | 431 | > 100000 | 332 | > 35700 | 312 | 951 | 356 | > 100000 | 308 | 1840 | 352 | > 100000 | 330 | > 100000
5 | COc1cnc2c(c1)C(=O)c1c-2n(CCCN2CCNCC2)c(=O)c2cc(F)ccc12 | 352 | 1900 | 42.1 | 1060 | 126 | 1300 | 66.5 | 352 | 168 | 1160 | 1130 | 2560 | 130 | 1240 | 110 | 1460 | 266 | 13200 | 84.1 | 1050
6 | COc1ccc(-c2cc(-c3ccc(Cl)cc3)c(C#N)c(=O)n2CCCCCC(=O)Nc2ccccc2N)cc1 | 1370 | 19200 | 4840 | > 100000 | 2780 | 10400 | 3490 | 52100 | 4580 | 27000 | 3190 | 20300 | 23100 | > 100000 | 3870 | > 100000 | 3330 | > 100000 | 6190 | > 100000
